We go through 31 compounds from patent US9073821B2, “Hydroxamic acid derivative” (priority 2010, dated 2015).

The structures appear in SMILES notation.

This test has as its target Pseudomonas aeruginosa LpxC enzyme (Pseudomonas aeruginosa (strain ATCC 15692 / DSM 22644 / CIP 104116 / JCM 14847 / LMG 12228 / 1C / PRS 101 / PAO1), UniProt P47205). The test can be described thus: biochemical. The test is classed as biochemical. The conditions noted are these: inhibitory activity on Pseudomonas aeruginosa LpxC enzyme, class symbols A/B/C; read-out: Enzyme inhibitory activity. The protocol: Test 1: Evaluation of the Inhibitory Activity on Pseudomonas aeruginosa LpxC Enzyme
An inhibition curve was constructed for each test compound by performing the aforementioned reaction at varying concentrations of the test compound. From this inhibition curve, the concentration of the test compound at which the formation of the reaction product was suppressed by 50% was determined as the IC50 of the test compound, which was an index for the inhibitory activity on Pseudomonas aeruginosa LpxC enzyme.
For the compound `CNC(=O)C(C(=O)NO)N(C)C(=O)c1ccc(-c2ccc(OCCCN(C)CCOC)cc2)cc1` (stereo not shown) [Compound 64, N-hydroxy-2-{[(4′-{3-[(2-methoxyethyl)(methyl)amino]propoxy}biphenyl-4-yl)carbonyl](methyl)amino}-N′-methylpropanediamide], the IC50 was in the range of 10 to 100 nM.

As for `CNC(=O)C(C(=O)NO)N(C)C(=O)c1ccc(-c2ccc(NCc3cccnc3)cc2)cc1` (stereo not shown) [Compound 65, N-hydroxy-N′-methyl-2-[methyl({4′-[(pyridin-3-ylmethyl)amino]biphenyl-4-yl}carbonyl)amino]propanediamide], the IC50 was less than 10 nM. As for `CNC(=O)C(C(=O)NO)N(C)C(=O)c1ccc(-c2ccc(NCCOC)c(F)c2)cc1` (stereo not shown) [Compound 66, 2-[({3′-fluoro-4′-[(2-methoxyethyl)amino]biphenyl-4-yl}carbonyl)(methyl)amino]-N-hydroxy-N′-methylpropanediamide], the figure is less than 10 nM; as for `CNC(=O)C(C(=O)NO)N(C)C(=O)c1ccc(-c2cc(F)c(NC)cc2F)cc1` (stereo not shown) [Compound 67, 2-[{[2′,5′-difluoro-4′-(methylamino)biphenyl-4-yl]carbonyl}(methyl)amino]-N-hydroxy-N′-methylpropanediamide], less than 10 nM; as for `CNC(=O)C(C(=O)NO)N(C)C(=O)c1ccc(-c2ccc(NC)c(C(F)(F)F)c2)cc1` (stereo not shown) [Compound 68, N-hydroxy-N′-methyl-2-(methyl{[4′-(methylamino)-3′-(trifluoromethyl)biphenyl-4-yl]carbonyl}amino)propanediamide], less than 10 nM. For `CNC(=O)C(C(=O)NO)N(C)C(=O)c1ccc(-c2cc(F)c(NC)c(F)c2)cc1` (stereo not shown) [Compound 69, 2-[{[3′,5′-difluoro-4′-(methylamino)biphenyl-4-yl]carbonyl}(methyl)amino]-N-hydroxy-N′-methylpropanediamide] the value was less than 10 nM; for `CNC(=O)C(C(=O)NO)N(C)C(=O)c1ccc(-c2ccc(OCCCN(C)Cc3ccccc3)cc2)cc1` (stereo not shown) [Compound 70, 2-{[(4′-{3-[benzyl(methyl)amino]propoxy}biphenyl-4-yl)carbonyl](methyl)amino}-N-hydroxy-N′-methylpropanediamide], less than 10 nM; for `CNC(=O)C(C(=O)NO)N(C)C(=O)c1ccc(-c2ccc(OCCCN3CCOC3=O)cc2)cc1` (stereo not shown) [Compound 71, N-hydroxy-N′-methyl-2-[methyl({4′-[3-(2-oxo-1,3-oxazolidin-3-yl)propoxy]biphenyl-4-yl}carbonyl)amino]propanediamide], less than 10 nM. As for `CNC(=O)C(C(=O)NO)N(C)C(=O)c1ccc(-c2c(F)c(F)c(NC)c(F)c2F)cc1` (stereo not shown) [Compound 72, N-hydroxy-N′-methyl-2-(methyl {[2′,3′,5′,6′-tetrafluoro-4′-(methylamino)biphenyl-4-yl]carbonyl}amino)propanediamide], the figure is less than 10 nM; as for `CNC(=O)C(C(=O)NO)N(C)C(=O)c1ccc(-c2ccccc2F)c(F)c1` (stereo not shown) [Compound 73, 2-{[(2,2′-difluorobiphenyl-4-yl)carbonyl](methyl)amino}-N-hydroxy-N′-methylpropanediamide], less than 10 nM; as for `CNC(=O)C(C(=O)NO)N(C)C(=O)c1ccc(-c2ccc(CNCC(C)(C)C)cc2)cc1` (stereo not shown) [Compound 74, 2-{[(4′-{[(2,2-dimethylpropyl)amino]methyl}biphenyl-4-yl)carbonyl](methyl)amino}-N-hydroxy-N′-methylpropanediamide], more than 100 nM. On to `CNC(=O)C(C(=O)NO)N(C)C(=O)c1ccc(-c2ccc(OCCCNc3ccccc3)cc2)cc1` (stereo not shown) [Compound 75, N-hydroxy-N′-methyl-2-[methyl({4′-[3-(phenylamino)propoxy]biphenyl-4-yl}carbonyl)amino]propanediamide], for which the IC50 is less than 10 nM. As for `CN(C(=O)c1ccc(-c2ccccc2)cc1)C(C(=O)NO)C(=O)NCCc1ccccc1` (stereo not shown) [Compound 76, 2-[(biphenyl-4-ylcarbonyl)(methyl)amino]-N-hydroxy-N′-(2-phenylethyl)propanediamide], the figure is more than 100 nM; as for `CCCS(=O)(=O)Nc1ccc(-c2ccc(C(=O)N(C)C(C(=O)NC)C(=O)NO)cc2)cc1` (stereo not shown) [Compound 78, N-hydroxy-N′-methyl-2-[methyl({4′-[(propylsulfonyl)amino]biphenyl-4-yl}carbonyl)amino]propanediamide], 10 to 100 nM; as for `CNC(=O)C(C(=O)NO)N(C)C(=O)c1ccc(-c2ccc(NCC3CC3)cc2)cc1` (stereo not shown) [Compound 79, 2-[({4′-[(cyclopropylmethyl)amino]biphenyl-4-yl}carbonyl)(methyl)amino]-N-hydroxy-N′-methylpropanediamide], less than 10 nM.

For `CN(C)C(=O)C(C(=O)NO)N(C)C(=O)c1ccc(-c2ccccc2)cc1` (stereo not shown) [Compound 80, 2-[(biphenyl-4-ylcarbonyl)(methyl)amino]-N′-hydroxy-N,N-dimethylpropanediamide], the IC50 was more than 100 nM.

Regarding `CNC(=O)C(C(=O)NO)N(C)C(=O)c1ccc(-c2ccc3c(c2)OCCO3)cc1` (stereo not shown) [Compound 81, 2-{[4-(2,3-dihydro-1,4-benzodioxin-6-yl)benzoyl](methyl)amino}-N-hydroxy-N′-methylpropanediamide], the IC50 is less than 10 nM. As for `CNC(=O)C(C(=O)NO)N(C)C(=O)c1ccc(-c2ccc3c(c2)N(C)C(=O)CO3)cc1` (stereo not shown) [Compound 82, N-hydroxy-N′-methyl-2-{methyl[4-(4-methyl-3-oxo-3,4-dihydro-2H-1,4-benzoxazin-6-yl)benzoyl]amino}propanediamide], the figure is less than 10 nM. For `CNC(=O)C(C(=O)NO)N(C)C(=O)c1ccc(-c2ccc(OC(F)(F)C(F)F)cc2)cc1` (stereo not shown) [Compound 83, N-hydroxy-N′-methyl-2-(methyl {[4′-(1,1,2,2-tetrafluoroethoxy)biphenyl-4-yl]carbonyl}amino)propanediamide] the value was less than 10 nM; for `CNC(=O)C(C(=O)NO)N(C)C(=O)c1ccc(-c2ccc(OCCCN3CCN(c4ccccc4)CC3)cc2)cc1` (stereo not shown) [Compound 84, N-hydroxy-N′-methyl-2-[methyl({4′-[3-(4-phenylpiperazin-1-yl)propoxy]biphenyl-4-yl}carbonyl)amino]propanediamide], less than 10 nM. For `CNC(=O)C(C(=O)NO)N(C)C(=O)c1ccc(-c2ccc(N(C)CC3CC3)cc2)cc1` (stereo not shown) [Compound 85, 2-[({4′-[(cyclopropylmethyl)(methyl)amino]biphenyl-4-yl}carbonyl)(methyl)amino]-N-hydroxy-N′-methylpropanediamide] the value was less than 10 nM. Turning to `CNC(=O)C(C(=O)NO)N(C)C(=O)c1ccc(-c2ccc(NCCCN3CCOCC3)cc2)cc1` (stereo not shown) [Compound 86, N-hydroxy-N′-methyl-2-{methyl[(4′-{[3-(morpholin-4-yl)propyl]amino}biphenyl-4-yl)carbonyl]amino}propanediamide], the IC50 fell in the range of 10 to 100 nM.

For `CNC(=O)C(C(=O)NO)N(C)C(=O)c1ccc(-c2ccc(OCc3cccc(CN4CCOCC4)c3)cc2)cc1` (stereo not shown) [Compound 87, N-hydroxy-N′-methyl-2-{methyl[(4′-{[3-(morpholin-4-ylmethyl)benzyl]oxy}biphenyl-4-yl)carbonyl]amino}propanediamide], the IC50 was less than 10 nM. For `CNC(=O)C(C(=O)NO)N(C)C(=O)c1ccc(-c2ccc(OCCCN3CC(C)OC(C)C3)cc2)cc1` (stereo not shown) [Compound 88, 2-[({4′-[3-(2,6-dimethylmorpholin-4-yl)propoxy]biphenyl-4-yl}carbonyl)(methyl)amino]-N-hydroxy-N′-methylpropanediamide] the value was less than 10 nM; for `CNC(=O)C(C(=O)NO)N(C)C(=O)c1ccc(-c2ccc(OCCN(C)c3ccccc3)cc2)cc1` (stereo not shown) [Compound 89, N-hydroxy-N′-methyl-2-{methyl[(4′-{2-[methyl(phenyl)amino]ethoxy}biphenyl-4-yl)carbonyl]amino}propanediamide], less than 10 nM. For `CNC(=O)C(C(=O)NO)N(C)C(=O)c1ccc(-c2ccc(OCc3ccc(N4CCN(C)CC4)cc3)cc2)cc1` (stereo not shown) [Compound 90, N-hydroxy-N′-methyl-2-{methyl[(4′-{[4-(4-methylpiperazin-1-yl)benzyl]oxy}biphenyl-4-yl)carbonyl]amino}propanediamide] the value was less than 10 nM; for `CNC(=O)C(C(=O)NO)N(C)C(=O)c1ccc(-c2ccc(OCc3ccc(CN4CCOCC4)cc3)cc2)cc1` (stereo not shown) [Compound 91, N-hydroxy-N′-methyl-2-{methyl[(4′-{[4-(morpholin-4-ylmethyl)benzyl]oxy}biphenyl-4-yl)carbonyl]amino}propanediamide], less than 10 nM.

As to `CNC(=O)C(C(=O)NO)N(C)C(=O)c1ccc(-c2ccc(OCCCN(C)Cc3c(F)cccc3F)cc2)cc1` (stereo not shown) [Compound 92, 2-{[(4′-{3-[(2,6-difluorobenzyl)(methyl)amino]propoxy}biphenyl-4-yl)carbonyl](methyl)amino}-N-hydroxy-N′-methylpropanediamide], the IC50 was less than 10 nM. For `CNC(=O)C(C(=O)NO)N(C)C(=O)c1ccc(-c2ccc(OCc3ccc(-c4nnn[nH]4)cc3)cc2)cc1` (stereo not shown) [Compound 93, N-hydroxy-N′-methyl-2-{methyl[(4′-{[4-(1H-tetrazol-5-yl)benzyl]oxy}biphenyl-4-yl)carbonyl]amino}propanediamide] the value was 10 to 100 nM; for `CNC(=O)C(C(=O)NO)N(C)C(=O)c1ccc(-c2ccc(OCC3(C)COC3)cc2)cc1` (stereo not shown) [Compound 95, N-hydroxy-N′-methyl-2-[methyl({4′-[(3-methyloxetan-3-yl)methoxy]biphenyl-4-yl}carbonyl)amino]propanediamide], less than 10 nM. For `CNC(=O)C(C(=O)NO)N(C)C(=O)c1ccc(-c2ccc(OCCCn3ccnc3)cc2)cc1` (stereo not shown) [Compound 96, N-hydroxy-2-[({4′-[3-(1H-imidazol-1-yl)propoxy]biphenyl-4-yl}carbonyl)(methyl)amino]-N′-methylpropanediamide] the value was less than 10 nM.
